Values joined by “and” are separate entries in the source; they are usually repeats but may differ in a detail not shown here. Identical values can stand only once.
Key:
[1] = Colorimetric alkylation rate constant assay with thiol N1; type: physicochemical; settings: for remaining [A]: N1 from calibration curve (N1 in uM); for remaining [A] / remaining [B]: in µM
[2] = Colorimetric alkylation rate constant assay with TNB^2− as non-specific thiol; type: physicochemical; parameters: second-order: unit not given here; settings: for remaining [B]: in µM
[3] = Time 2891 sec, [B]0 = 250, Replicates 1-3
[4] = Time 3071 sec, [B]0 = 250, Replicates 1-3
[5] = Time 3252 sec, [B]0 = 250, Replicates 1-3
[6] = Time 3433 sec, [B]0 = 250, Replicates 1-3
[7] = Time 3613 sec, [B]0 = 250, Replicates 1-3

remaining [A] ([1]; Replicate 1, time 576 sec): 85.1676 | remaining [B] ([1]; Replicate 1, time 576 sec, [B]0 = 250): 231.048 | remaining [A] ([1]; Replicate 1, time 606 sec): 84.6546 | remaining [B] ([1]; Replicate 1, time 606 sec, [B]0 = 250): 230.535 | remaining [A] ([1]; Replicate 2, time 576 sec): 85.8231 | remaining [B] ([1]; Replicate 2, time 576 sec, [B]0=250): 232.681 | remaining [A] ([1]; Replicate 2, time 606 sec): 85.3129 | remaining [B] ([1]; Replicate 2, time 606 sec, [B]0=250): 232.171 | remaining [A] ([1]; Replicate 3, time 576 sec): 89.9918 | remaining [B] ([1]; Replicate 3, time 576 sec, [B]0=250): 235.444 | remaining [A] ([1]; Replicate 3, time 606 sec): 89.4236 | remaining [B] ([1]; Replicate 3, time 606 sec, [B]0=250): 234.876 | remaining [B] ([1]; time 0 sec, [B]0 = 250, replicates 1-3): 249.513 and 244.642 and 245.947 | remaining [B] ([1]; time 30 sec, [B]0 = 250, replicates 1-3): 248.485 and 243.217 and 245.21 | remaining [B] ([1]; time 60 sec, [B]0 = 250, replicates 1-3): 247.619 and 242.647 and 243.934 | remaining [B] ([1]; time 91 sec, [B]0 = 250, replicates 1-3): 246.645 and 241.963 and 243.197 | remaining [B] ([1]; time 121 sec, [B]0 = 250, replicates 1-3): 245.942 and 241.222 and 242.404 | remaining [B] ([1]; time 151 sec, [B]0 = 250, replicates 1-3): 245.265 and 240.31 and 241.667 | remaining [B] ([1]; time 182 sec, [B]0 = 250, replicates 1-3): 244.291 and 239.712 and 241.043 | remaining [B] ([1]; time 212 sec, [B]0 = 250, replicates 1-3): 243.723 and 239.142 and 240.505 | remaining [B] ([1]; time 242 sec, [B]0 = 250, replicates 1-3): 242.993 and 238.344 and 239.824 | remaining [B] ([1]; time 273 sec, [B]0 = 250, replicates 1-3): 242.1 and 237.717 and 239.002 | remaining [B] ([1]; time 303 sec, [B]0 = 250, replicates 1-3): 241.397 and 237.004 and 238.492 | remaining [B] ([1]; time 333 sec, [B]0 = 250, replicates 1-3): 240.774 and 236.377 and 237.897 | remaining [B] ([1]; time 364 sec, [B]0 = 250, replicates 1-3): 239.963 and 235.665 and 237.16 | remaining [B] ([1]; time 394 sec, [B]0 = 250, replicates 1-3): 239.367 and 234.981 and 236.423 | remaining [B] ([1]; time 424 sec, [B]0 = 250, replicates 1-3): 238.745 and 234.154 and 235.799 | remaining [B] ([1]; time 454 sec, [B]0 = 250, replicates 1-3): 238.204 and 233.641 and 235.374 | remaining [B] ([1]; time 485 sec, [B]0 = 250, replicates 1-3): 237.419 and 232.929 and 234.552 | remaining [B] ([1]; time 515 sec, [B]0 = 250, replicates 1-3): 236.662 and 232.416 and 234.155 | remaining [B] ([1]; time 545 sec, [B]0 = 250, replicates 1-3): 236.148 and 231.703 and 233.702 | remaining [B] ([2]; Replicate 1, 723 sec, [B]0 = 250): 246.309 | remaining [B] ([2]; Replicate 1, 903 sec, [B]0 = 250): 246.195 | remaining [B] ([2]; Replicate 1, 1084 sec, [B]0 = 250): 246.107 | remaining [B] ([2]; Replicate 1, 1265 sec, [B]0 = 250): 246.422 | remaining [B] ([2]; Replicate 1, 1445 sec, [B]0 = 250): 246.548 | remaining [B] ([2]; Replicate 1, 1626 sec, [B]0 = 250): 246.346 | remaining [B] ([2]; Replicate 1, 1806 sec, [B]0 = 250): 245.931 | remaining [B] ([2]; Replicate 1, 1988 sec, [B]0 = 250): 245.767 | remaining [B] ([2]; Replicate 1, 2168 sec, [B]0 = 250): 245.616 | remaining [B] ([2]; Replicate 1, 2349 sec, [B]0 = 250): 245.553 | remaining [B] ([2]; Replicate 1, 2530 sec, [B]0 = 250): 245.464 | remaining [B] ([2]; Replicate 1, 2710 sec, [B]0 = 250): 245.427 | remaining [B] ([2]; Replicate 2, 542 sec, [B]0=250): 245.747 | remaining [B] ([2]; Replicate 2, 723 sec, [B]0=250): 245.533 | remaining [B] ([2]; Replicate 2, 903 sec, [B]0=250): 245.445 | remaining [B] ([2]; Replicate 2, 1084 sec, [B]0=250): 245.382 | remaining [B] ([2]; Replicate 2, 1265 sec, [B]0=250): 245.218 | remaining [B] ([2]; Replicate 2, 1445 sec, [B]0=250): 245.168 | remaining [B] ([2]; Replicate 2, 1626 sec, [B]0=250): 245.067 | remaining [B] ([2]; Replicate 2, 1806 sec, [B]0=250): 244.991 | remaining [B] ([2]; Replicate 2, 1988 sec, [B]0=250): 244.928 | remaining [B] ([2]; Replicate 2, 2168 sec, [B]0=250): 244.827 | remaining [B] ([2]; Replicate 2, 2349 sec, [B]0=250): 244.739 | remaining [B] ([2]; Replicate 2, 2530 sec, [B]0=250): 244.676 | remaining [B] ([2]; Replicate 2, 2710 sec, [B]0=250): 244.563 | remaining [B] ([2]; Replicate 3, 723 sec, [B]0=250): 245.666 | remaining [B] ([2]; Replicate 3, 903 sec, [B]0=250): 245.565 | remaining [B] ([2]; Replicate 3, 1084 sec, [B]0=250): 245.427 | remaining [B] ([2]; Replicate 3, 1265 sec, [B]0=250): 245.389 | remaining [B] ([2]; Replicate 3, 1445 sec, [B]0=250): 245.313 | remaining [B] ([2]; Replicate 3, 1626 sec, [B]0=250): 245.149 | remaining [B] ([2]; Replicate 3, 1806 sec, [B]0=250): 245.137 | remaining [B] ([2]; Replicate 3, 1988 sec, [B]0=250): 245.036 | remaining [B] ([2]; Replicate 3, 2168 sec, [B]0=250): 244.986 | remaining [B] ([2]; Replicate 3, 2349 sec, [B]0=250): 244.872 | remaining [B] ([2]; Replicate 3, 2530 sec, [B]0=250): 244.809 | remaining [B] ([2]; Replicate 3, 2710 sec, [B]0=250): 244.62 | remaining [B] [2, 3]: 244.62 and 245.338 and 244.475 | remaining [B] [2, 4]: 244.544 and 245.225 and 244.386 | remaining [B] [2, 5]: 244.481 and 245.2 and 244.323 | remaining [B] [2, 6]: 244.343 and 245.049 and 244.235 | remaining [B] [2, 7]: 244.28
Compound: O=C(CCl)Nc1ccccc1C(=O)O [Compound C5]
second-order ([1]; Replicate 1, time 576 sec, second-order plot value): 0.0008369 | second-order ([1]; Replicate 1, time 606 sec, second-order plot value): 0.0008631 | second-order ([1]; Replicate 2, time 576 sec, second-order plot value): 0.0007628 | second-order ([1]; Replicate 2, time 606 sec, second-order plot value): 0.0007885 | second-order ([1]; Replicate 3, time 576 sec, second-order plot value): 0.0006183 | second-order ([1]; Replicate 3, time 606 sec, second-order plot value): 0.0006452 | second-order ([1]; time 0 sec, replicates 1-3): 0.0001617 and 1.87e-5 and 0.0002136 | second-order ([1]; time 30 sec, replicates 1-3): 0.0001921 and 5.857e-5 and 0.0002732 | second-order ([1]; time 60 sec, replicates 1-3): 0.0002455 and 9.259e-5 and 0.0002974 | second-order ([1]; time 91 sec, replicates 1-3): 0.0002767 and 0.0001313 and 0.0003267 | second-order ([1]; time 121 sec, replicates 1-3): 0.0003108 and 0.0001597 and 0.0003587 | second-order ([1]; time 151 sec, replicates 1-3): 0.0003428 and 0.0001872 and 0.0003986 | second-order ([1]; time 182 sec, replicates 1-3): 0.0003702 and 0.0002272 and 0.0004251 | second-order ([1]; time 212 sec, replicates 1-3): 0.000394 and 0.0002509 and 0.0004506 | second-order ([1]; time 242 sec, replicates 1-3): 0.0004243 and 0.0002815 and 0.0004866 | second-order ([1]; time 273 sec, replicates 1-3): 0.0004614 and 0.0003194 and 0.0005152 | second-order ([1]; time 303 sec, replicates 1-3): 0.0004847 and 0.0003496 and 0.000548 | second-order ([1]; time 333 sec, replicates 1-3): 0.000512 and 0.0003766 and 0.0005771 | second-order ([1]; time 364 sec, replicates 1-3): 0.0005463 and 0.0004122 and 0.0006106 | second-order ([1]; time 394 sec, replicates 1-3): 0.0005809 and 0.0004386 and 0.0006431 | second-order ([1]; time 424 sec, replicates 1-3): 0.0006105 and 0.0004664 and 0.0006829 | second-order ([1]; time 454 sec, replicates 1-3): 0.0006308 and 0.0004908 and 0.0007078 | second-order ([1]; time 485 sec, replicates 1-3): 0.0006705 and 0.0005265 and 0.0007427 | second-order ([1]; time 515 sec, replicates 1-3): 0.0006899 and 0.0005614 and 0.0007681 | second-order ([1]; time 545 sec, replicates 1-3): 0.0007121 and 0.0005853 and 0.0008038 | second-order [2, 3]: 0.0002299 and 0.0002236 and 0.0001928 | second-order [2, 4]: 0.0002338 and 0.0002269 and 0.0001976 | second-order [2, 5]: 0.0002365 and 0.0002296 and 0.0001987 | second-order [2, 6]: 0.0002403 and 0.0002356 and 0.0002052 | second-order [2, 7]: 0.0002452 and 0.0002384 and 0.0002063 | second-order ([2]; Time 3794 sec, [B]0 = 250, Replicates 1-3): 0.0002474 and 0.0002417 and 0.0002117 | second-order ([2]; Time 3974 sec, [B]0 = 250, Replicates 1-3): 0.0002513 and 0.0002455 and 0.0002139 | second-order ([2]; Time 4155 sec, [B]0 = 250, Replicates 1-3): 0.0002546 and 0.0002504 and 0.0002193 | second-order ([2]; Time 4336 sec, [B]0 = 250, Replicates 1-3): 0.000259 and 0.0002537 and 0.000222 | second-order ([2]; Time 4516 sec, [B]0 = 250, Replicates 1-3): 0.0002623 and 0.0002543 and 0.0002291 | second-order ([2]; Time 4697 sec, [B]0 = 250, Replicates 1-3): 0.0002656 and 0.0002598 and 0.0002275 | second-order ([2]; Time 4878 sec, [B]0 = 250, Replicates 1-3): 0.0002689 and 0.0002614 and 0.0002307 | second-order ([2]; Time 5058 sec, [B]0 = 250, Replicates 1-3): 0.0002728 and 0.000267 and 0.0002367 | second-order ([2]; Time 5239 sec, [B]0 = 250, Replicates 1-3): 0.0002767 and 0.0002692 and 0.0002406 | second-order ([2]; Time 5419 sec, [B]0 = 250, Replicates 1-3): 0.0002789 and 0.0002725 and 0.0002433 | second-order ([2]; Time 5600 sec, [B]0 = 250, Replicates 1-3): 0.0002833 and 0.0002764 and 0.0002471 | second-order ([2]; Time 5781 sec, [B]0 = 250, Replicates 1-3): 0.0002878 and 0.0002803 and 0.0002499 | second-order ([2]; Time 5961 sec, [B]0 = 250, Replicates 1-3): 0.0002906 and 0.000283 and 0.0002554

Source: PMC12669040, “Tumour-specific STING agonist synthesis via a two-component prodrug system” (Nature Chemistry, 2025)
